In PMC6472001, “Phenolic Compounds from Humulus lupulus as Natural Antimicrobial Products: New Weapons in the Fight against Methicillin Resistant Staphylococcus aureus, Leishmania mexicana and Trypanosoma brucei Strains” (Molecules, 2019):
Values after ≈ are worked out from the molar mass of the structure shown. Where two headings read alike, the source gives them in different places.

Key:
S. aureus T28.1 biofilm = assay: Anti-biofilm: biofilm formation on synthetic bone substitute; format: cell-based, Staphylococcus aureus; details: at MIC
Experimental: β-Tricalcium phosphate discs (Cerasorb®, Curasan, Germany) were used as bone substitute. Non-glucose enriched BHI medium was used here, because the bacterial glucose metabolism causes an acidification of the culture medium which leads to the disintegration of the discs. Discs were introduced in a 24-well plate: 1.8 mL of BHI media were added with 0.1 mL of product in DMSO (5%) and 0.1 mL of a 10^5 CFU/mL bacterial suspension. Final concentrations of hop phenolic compounds were from MIC/4 to 4 × MIC. After 24 h at 37 °C, counts were performed in two steps. First, planktonic bacteria were counted from 100 µL of the culture supernatant by plating tenfold dilutions on MHA. Then, bacteria adhering to the discs were counted: discs were removed and washed with a CR solution, then, 10 mL of CR were added to each disk and treated 1 min by sonication (35 kHz) and 30 s by vortex. The obtained suspension was enumerated as previously. The detection threshold was also 1 log(CFU/mL).

[1] = system: selected S. aureus strains; assay: Broth microdilution MIC, range over strains; format: cell-based; details: Staphylococcus aureus; range over MRSA and MSSA strains of Table 3; read-out: MIC against selected S. aureus strains
Experimental: (§1) The protocol employed was inspired by Abedini et al. with some modifications. Products were solubilized in DMSO and serially diluted two-fold in MH medium. A bacterial suspension at 10^5 CFU/mL was added to obtain a final volume of 200 µL. Final phenolic product concentrations in wells ranged from 625 to 2.4 µg/mL (exception for lupulone for which dilutions were continued until 0.3 µg/mL). […] Plates were incubated overnight with stirring (60 rpm) at 37 °C.

MRSA strains = assay: Broth microdilution MIC, range over strains; format: cell-based; details: Staphylococcus aureus, read-out: MICs towards MRSA strains
Experimental: as §1

S. aureus T28.1 = assay: Post-antibiotic effect (PAE); format: cell-based, Staphylococcus aureus; details: for Maximum Growth Retardation: 2 h exposure
Experimental: This method allows quantifying the delayed regrowth of a bacterial population following exposure to an active compound [76]. Stock solutions of xanthohumol, desmethylxanthohumol and lupulone were prepared in DMSO 20 times more concentrated than the desired final concentrations (MIC/4 to 4 × MIC). A 2 h pre-treatment with purified prenylated compounds was performed using 8.5 mL of BHI medium, 0.5 mL of purified product in DMSO and 1 mL of a bacterial suspension at 10^5 CFU/mL, incubated at 37 °C. […] The hop compound was then inactivated by a 1000-fold dilution. After inactivation, a growth curve was performed with counts at 30 min and every 2 h. The growth lag was quantified by comparison with the control, using the following formula: PAE=T−C
T is the time needed for the bacterial population to grow by 1 log(CFU/mL) at the given concentration, C is the corresponding time for the control (Figure 5)

[2] = system: Leishmania mexicana mexicana (Lmm); assay: Antiparasitic activity, broth microdilution; format: cell-based
Experimental: (§2) Tbb were cultivated in HMI9 medium containing 10% heat-inactivated foetal bovine serum (FBS) (Sigma-Aldrich), […] L-cysteine and […] beta-mercaptoethanol at 37 °C (CO2 5%). Lmm (MHOM/BZ/84/BEL46) were cultivated in SDM-79 medium (Gibco) supplemented with 15% heat-inactivated FBS (Sigma-Aldrich) and 5 mg/L hemin at 28 °C (CO2 5%). Antiparasitic bioassays were performed as described by Bero et al.. Suramin (SUR) and pentamidine (PEN) were used as positive controls respectively. The hops compounds (xanthohumol, desmethylxanthohumol, humulone, lupulone) concentration that inhibits 50% of the cell viability (IC50) was determined using GraphPad Prism, version 5.01 (GraphPad Software, San Diego, CA, USA).

[3] = system: Trypanosoma brucei brucei (Tbb); assay: Antiparasitic activity, broth microdilution; format: cell-based
Experimental: as §2

[4] = system: human hepatocellular carcinoma; design: method as in PMID 18814205; details: cited from earlier work
biofilm formation = system: biofilm formation; design: method as in PMID 24175280; details: at the MIC; cited from earlier work
Leishmania amazonensis = system: Leishmania amazonensis; design: method as in PMID 27938439; details: cited from earlier work
Plasmodium falciparum = system: Plasmodium falciparum; design: method as in PMID 15824094; details: cited from earlier work
lung cell line = system: lung cell line; design: method as in PMID 26664015; details: cited from earlier work
humans = system: humans; design: method as in PMID 24038952; details: up to 180 mg in humans for a short intake; cited from earlier work
mice = system: mice; design: method as in PMID 20427021; details: approximately 1000 mg/kg of body weight of mice; cited from earlier work
[5] = Leishmania mexicana, read-out: IC50 (converted)
[6] = Leishmania mexicana, value in parentheses, read-out: IC50 (converted)
[7] = Trypanosoma brucei, read-out: IC50 (converted)
[8] = Trypanosoma brucei, value in parentheses, read-out: IC50 (converted)
[9] = value in parentheses, read-out: IC50 (converted)

Compound	Biofilm formation on bone substitute discs (S. aureus T28.1 biofilm)	MIC [1] [µg/mL]	MIC (MRSA strains) [µg/mL]	Maximum Growth Retardation (S. aureus T28.1; 2 × MIC) [h]	Maximum Growth Retardation (S. aureus T28.1; 4 × MIC) [h]	Maximum Growth Retardation (S. aureus T28.1; MIC/2) [h]	Maximum Growth Retardation (S. aureus T28.1; MIC) [h]	IC50 [2, 5] [µg/mL]	IC50 [2, 6] [µM]	IC50 [3, 7] [µg/mL]	IC50 [3, 8] [µM]	also measured
CC(C)=CCc1c(O)cc(O)c(C(=O)/C=C/c2ccc(O)cc2)c1O [DMX, desmethylxanthohumol]	significant decrease	19.5 to 39 (≈ 57.3 to 115 µM)	19.5 to 39 (≈ 57.3 to 115 µM)	2.29	2.34	2.10	2.32	26.2 ± 1.8	77	7.7 ± 0.6	22.6	–
COc1cc(O)c(CC=C(C)C)c(O)c1C(=O)/C=C/c1ccc(O)cc1 [XN, xanthohumol]	–	9.8 to 19.5 (≈ 27.7 to 55 µM)	9.8 to 19.5 (≈ 27.7 to 55 µM)	2.05	3.29	1.34	2.23	6.1 ± 3.1	17.2	2.4 ± 0.2	6.8	IC50 [4]: about 75 µg/mL; Inhibition of biofilm formation (biofilm formation): 86.5%; IC50 (Leishmania amazonensis): in the µM range; IC50 (Plasmodium falciparum): in the µM range; IC50 (lung cell line): ~100 µg/mL (≈ 282 µM); Safety in vivo (humans): good safety; Safety in vivo (mice): good safety
lupulone	significant decrease	–	–	–	0.47	0.26	0.53	–	–	–	–	Maximum delay after inactivation (S. aureus T28.1; over all concentrations): ~55 min; IC50 [2]: 4.7 ± 0.1 µg/mL; IC50 [2, 9]: 11.3 µM; IC50 [3]: 0.9 ± 0.0 µg/mL; IC50 [3, 9]: 2.2 µM
